From patent publication US20260272936A1, “TREATMENT OF CANCER WITH A PARG INHIBITOR” (858 Therapeutics, Inc., priority 2023, published 2026)
pIC50: −log10 of the molar value.

What was measured:
5-HT2A receptor = target: T1, 5-HT2A receptor (Homo sapiens, UniProt P28223); assay: Eurofins selectivity panel, radioligand competition binding at 10 μM
T1 construct: Eurofins (contract study)
Protocol: (§1) The inhibitory potential of Compound 1 was tested against 38 diverse non-kinase enzymes and 55 receptors, ion channels and neurotransmitter transporters in radioligand competition binding assays using mostly human recombinant proteins. […] Compound 1 was also tested against an additional panel of 468 protein kinases. Studies were performed at Eurofins (Luxembourg City, Luxembourg) using their published assay formats.

human A1 receptor = target: T2, human A1 receptor (Homo sapiens, UniProt P30542); assay: as above
T2 construct: Eurofins (contract study)
T2 sequence (P30542 whole entry): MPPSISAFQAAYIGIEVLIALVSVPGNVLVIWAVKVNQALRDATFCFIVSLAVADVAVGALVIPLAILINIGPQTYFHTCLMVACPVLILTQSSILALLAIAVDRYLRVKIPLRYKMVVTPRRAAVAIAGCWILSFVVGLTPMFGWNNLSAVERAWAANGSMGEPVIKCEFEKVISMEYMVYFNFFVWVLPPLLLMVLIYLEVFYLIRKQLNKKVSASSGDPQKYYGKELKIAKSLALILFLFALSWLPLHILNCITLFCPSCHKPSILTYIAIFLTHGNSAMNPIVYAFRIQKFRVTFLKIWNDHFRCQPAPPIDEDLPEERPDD
Protocol: as §1

[1] = system: HCC1428 breast cancer xenograft; assay: HCC1428 breast cancer CDX model, tumor volume and body weight; assay type: in vivo, BALB/c nude mice; conditions: for % TGI: 25 days
Protocol: Two separate studies were performed. […] Groups of 8 animals each were established by random assignment. Tumor volumes and body weights were measured twice weekly. The tumor volume (TV) in mm^3 was estimated using the formula: TV=a×b^2/2, where a and b are the long and short diameters of a tumor, respectively. For each treatment group, if the mean TV at the end of study was greater than the mean tumor volume at treatment initiation, then tumor growth inhibition (TGI) was calculated using the formula: % TGI=[1-(Mean TreatedTVFinal−Mean Treated TVInitial)/(Mean Vehicle TVFinal−Mean VehicleTVInitial)]×100. If the mean TV of the treatment group at the end of study was less than the mean tumor volume at treatment initiation, then tumor regression (REG) was calculated using the formula: % REG=[(Mean Treated TVInitial−Mean Treated TVFinal)/Mean TreatedTVInitial]×100. Statistical analysis of end-of-study tumor volumes was performed using two-way repeated measures ANOVA followed by post hoc comparisons of the mean.
The PARP inhibitor niraparib was included as a comparator and dosed orally QD at a dose of 45 mg/kg.
The mice in the 50 mg/kg BID group were dosed every day whereas the mice in the […] were dosed for the first 5 days of each 7-day cycle, such that the total weekly dose was the same between these two groups. At the end of the study, tumor tissue was collected for the vehicle, 50 mg/kg BID, and 30, 50 and 100 mg/kg QD dose groups and formalin-fixed and paraffin embedded (FFPE) for γH2AX immunohistochemistry. γH2AX expression in FFPE tumor tissue was evaluated by staining and was performed using immunohistochemistry and validated antibody conditions at Histowiz (Long Island City, NY, USA). The γH2AX IHC images were then quantified in-house using QuPath software. The total number of nuclei objects per tumor section based on hematoxylin counter-staining (blue) were segmented using a Stardist algorithm and the number of γH2AX positive DAB (3,3′ Diaminobenzidine) stained cells (brown) quantified using object classification with a pre-trained random forest model based on DAB staining parameters including intensity and standard deviation.

[2] = system: Resistant SNU601 cells (acquired niraparib resistance); assay: 6-day proliferation, nuclei count, PARP inhibitor resistant line; assay type: cell-based, human
Protocol: The SNU601 gastric carcinoma cell line (Creative Bioarray, Cat #CSC-C9686L) was cultured in RPMI media containing glutamax, 10% fetal bovine serum, and 1% penicillin/streptomycin at 37° C., 5% CO2. To generate a PARP inhibitor resistant cell line, an IC20 concentration of niraparib was added to the culture media.
Compound 1 and the PARP inhibitor niraparib were tested in cellular proliferation assays using the parental SNU601 cell line and the SNU601 cell line with acquired PARPi resistance. For the proliferation assays, cells were plated in 96-well plates (Corning costar 3603) at 2500-5000 cells/well in normal growth media. The next day, compound dissolved in vehicle (0.5% DMSO in media) was added to generate a 7- to 10-point concentration curve with half-log dilutions and starting concentrations of 10 or 31.6 μM. After 6 days of compound or vehicle treatment, the cells were fixed with a solution of 8% paraformaldehyde, 0.2% Triton X-100 for 20 minutes. After washing the cells with PBS, the nuclei were stained by the addition of DAPI (4′,6-diamidino-2-phenylindole) and incubation for 20 minutes. The number of nuclei in each well were counted by imaging the plates on an Image Xpress Pico automated cell imaging system (Molecular Devices). The percent proliferation after treatment was determined by normalizing the number of nuclei in treated wells to the vehicle-treated wells. Concentration-response-curves and IC50 values for percent inhibition of proliferation were generated by non-linear regression analysis using GraphPad Prism 10 software.

HCC1806 xenograft = assay: HCC1806 triple negative breast cancer CDX, combination with camonsertib (RP-3500); parameters: species or system Athymic nude mice; conditions: mouse, in vivo
Protocol: HCC1806 cells were cultured in RPMI medium containing 10% FBS (Thermo Fisher Scientific Cat #A31605-02) and penicillin+streptomycin (Thermo Fisher Scientific Cat #15070-063). The CDX model was established by subcutaneous inoculation of 1×10^6 HCC1806 cells/mouse into the right flank of Athymic nude mice (The Jackson Laboratory, Bar Harbor, ME, USA, Cat #002019). […] Compound 1 was administered to mice at 200 mg/kg to mice orally once daily from Monday through Friday throughout the treatment period and camonsertib (RP-3500) was administered at 15 mg/kg orally once daily from Monday through Wednesday throughout the treatment period (Table 11).
Tumor volumes and body weights were measured twice weekly. […] Statistical analysis of end-of-study tumor volumes relative to the vehicle group tumor volume was performed using Kruskal-Wallis Anova test with Dunn's multiple comparisons test.

T1 sequence (P28223 whole entry): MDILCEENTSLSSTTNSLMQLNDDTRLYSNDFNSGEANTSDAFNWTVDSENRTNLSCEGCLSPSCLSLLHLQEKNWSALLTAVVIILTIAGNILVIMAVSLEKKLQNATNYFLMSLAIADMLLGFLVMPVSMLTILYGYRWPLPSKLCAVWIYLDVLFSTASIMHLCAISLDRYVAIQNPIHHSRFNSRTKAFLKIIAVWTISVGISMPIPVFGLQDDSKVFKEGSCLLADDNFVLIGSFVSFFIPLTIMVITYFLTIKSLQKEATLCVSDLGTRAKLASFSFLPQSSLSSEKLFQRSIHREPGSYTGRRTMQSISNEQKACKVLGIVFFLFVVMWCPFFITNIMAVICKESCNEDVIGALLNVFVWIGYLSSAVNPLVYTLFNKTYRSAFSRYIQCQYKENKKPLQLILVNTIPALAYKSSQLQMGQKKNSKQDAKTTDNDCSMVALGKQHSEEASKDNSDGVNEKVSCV

[2H]C([2H])(c1cnn(C)c1)N1C(=O)c2cc(S(=O)(=O)NC3(C)CC3)ccc2N2C1=NC[C@H]2C [Compound 1, (R)-1-methyl-4-((1-methyl-1H-pyrazol-4-yl)methyl-d2)-N-(1-methylcyclopropyl)-5-oxo-1,2,4,5-tetrahydroimidazo[1,2-a]quinazoline-7-sulfonamide]
inhibition at 10 µM (5-HT2A receptor): 64%
inhibition at 10 µM (human A1 receptor): 67%
mean body loss over the treatment period ([1]; Study 1, 75 mg/kg BID): < 4%
mean body weight change over the treatment period ([1]; Study 1, 100 mg/kg QD): mean body weight increase
% TGI ([1]; Study 2, 10 mg/kg QD oral): 26% TGI
% TGI ([1]; Study 2, 30 mg/kg QD oral): 35% TGI
mean body weight loss during the treatment period ([1]; Study 2, all dose groups): ≤ 2%
better potency than niraparib in PARPi resistant SNU601 [2]: 10 ×
pIC50 ([2]; Homo sapiens, SNU-601, 144 h, read-out: IC50 inhibition of proliferation): 6.49
body weight change during the treatment period (HCC1806 xenograft): body weight gains
